In patent US11026945B2, “Protein kinase RNA-like endoplasmic reticulum kinase (PERK) inhibitors for prevention and/or treatment of lung injury and/or inflammation” (THE TRUSTEES OF THE UNIVERSITY OF PENNSYLVANIA, priority 2016, dated 2021):

What was measured:
[1] = system: AEC-I monolayers; test: Cytokine levels in culture supernatant, multiplex bead assay; format: cell-based, rat; details: stretched monolayers, PI treatment
Protocol: Given the interest in cytokines as a biomarker of injury, the contribution of ISR signaling to stretch-induced proinflammatory mediator release was assessed by measuring the level of 26 common cytokines in the culture media in the presence and absence of PI. Generally low cytokine response to stretch was found with modest elevations in IL-18, IL-1α and MIP-1α (FIG. 4A-FIG. 4C). […] (FIG. 4A). To study the regulation of IL-18 by ISR, stretched and unstretched cells were treated with CHOP, ATF4 and PERK siRNA (FIG. 17A-FIG. 17B and FIG. 4D-FIG. 4F). […] Cell culture media IL-18 levels were compared to no siRNA and non-targeting siRNA treatments.
Culture media of stretched and unstretched AEC-I monolayers was collected at the end of the experiment. N=5 biological monolayer replicates were used per condition. 0.5 ml samples were concentrated to 30 μl using centrifugal filters (Amicon Ultra, EMD Millipore). Levels of 26 common cytokines and chemokines were measured with RECYTMAG-65K MILLIPLEX MAP Rat Cytokine Chemokine Magnetic Bead Panel multiplex bead assay (EMD Millipore Corp., Billerica, Mass.) in triplicates per the manufacturer's protocol. 25 μl samples were used. The following analytes were measured: epidermal growth factor (EGF), eotaxin, macrophage colony stimulating factor […], interleukin (IL)-1α, 2,4,5,6,10,12 (p70), 13, 17A, 18; granulocyte-macrophage colony stimulating factor (GM-CSF), regulated on activation, normal T cell expressed and secreted (RANTES), vascular […] growth factor (VEGF), fractalkine, interferon-γ (INFγ), interferon-γ-inducible protein 10 (IP-10), leptin, tumor necrosis factor-α (TNF-α), keratinocyte chemoattractant (GRO/KC), macrophage inflammatory protein (MIP)-1α and 2, monocyte chemoattractant protein (MCP-1), and LPS-induced chemokine (LIX). Samples were read in triplicates and an averaged value was obtained.

[2] = system: tight junction proteins (CLDN4, CLDN18) bound to ZO-1 in AEC-I monolayers; test: Co-immunoprecipitation of tight junction proteins with ZO-1 as bait; format: cell-based, rat; details: stretched monolayers (25%, 6 hours), PI pretreatment
Protocol: The dose of siRNA and PI treatment was selected based on dose-response curves above (FIG. 2A-FIG. 2E). AEC-II transformed to AEC-I cells and formed a complete monolayer by day 4, expressing only AEC-I cell surface markers. On the day of the experiment, the medium was removed and replaced with HEPES-buffered MEM. Cells stretch was performed in a 37° C. incubator. The effect of ISR inhibition or control treatment was compared in the following three conditions (N=5 biological replicates/condition): 1) no stretch (NS) controls; 2) mechanical stretch with 12% surface change (S 12%); and 3) mechanical stretch with 25% surface change (S25%). The cell monolayers were exposed to the above mentioned conditions for 6 hours based on time course of ISR protein expression obtained during preliminary data collection (FIG. 2A-FIG. 2E). All membranes were treated with FITC-labeled streptavidin (Thermo Fisher Scientific) at the end of the experiment and light emission was detected at 488 nm with fluorescent microscopy (Nikon TE300, Melville, N.Y.). In a separate set of experiments (N=30 rats), in which the above mentioned treatment plan and conditions were used, cells were harvested at the end of the experiment by scraping them in RIPA buffer and total protein was extracted (N=3 membranes/treatment group performed for N=5 biological replicates per condition). […]

[3] = system: ISR (p-EIF2α, ATF4, CHOP) in lung tissue; test: Lung tissue ISR western blot in rat VILI model; format: in vivo
Protocol: The right lung was harvested. […] For cytokine analysis serum was used.
Total protein from cells and lung tissue were extracted using RIPA lysis buffer. Total protein was quantified with Pierce […] (Thermo Fisher Scientific). Western blotting for phosphorylated (p) and total (t) forms of EIF2α, p- and t-IRE1α, p- and t-PERK, ATF4, CHOP and XBP1 was performed. B-actin was used as loading control (Santa Cruz Biotechnologies, Santa Cruz, Calif.). The following primary antibodies were used: p-EIF2α (Ser 51) and t-EIF2α rabbit monoclonal antibody (Cell Signaling, Danvers, Mass.), p-IRE1α (Ser 724) and t-IRE1α rabbit monoclonal antibody (Abcam, Cambridge, Mass.), ATF4 rabbit polyclonal antibody (Sigma-Aldrich), CHOP (F-168) mouse polyclonal antibody (Santa Cruz), XBP-1 rabbit monoclonal antibody (Abcam) and B-actin mouse polyclonal antibody (Santa Cruz). For immunoprecipitation of PERK, p-PERK (Thr 981) antibody (Santa Cruz) was used and p-PERK (Thr 980) and t-PERK were detected with rabbit monoclonal antibodies (Cell signaling). N=4-8 biological replicates per conditions were used in immunoblot studies. Immunoblots were scanned and bend densities were analyzed using Image J software.

[4] = ventilated rats (VPI), 30 mg/kg oral gavage 4 hours before ventilation

## Cn1cc(-c2ccc3c(c2)CCN3C(=O)Cc2cccc(C(F)(F)F)c2)c2c(N)ncnc21 [PI, 1-[5-(4-Amino-7-methyl-7H-pyrrolo[2,3-d]pyrimidin-5-yl)indolin-1-yl]-2-(3-trifluoromethylphenyl)ethanone]
[1]
  IL-1α level in supernatant: did not affect
  IL-18 level in supernatant: decreased
  MIP-1α level in supernatant: did not affect
[2]
  dissociation of CLDN 4 from ZO-1: prevented
  dissociation of CLDN 18 from ZO-1: prevented
[3]; spontaneously breathing controls (CPI), 30 mg/kg oral gavage
  p-EIF2α, ATF4 and CHOP in lung tissue: did not affect
[3]; [4]
  VILI-mediated phosphorylation of EIF2α in lung tissue: significantly reduced
  protein expression of ATF4 in lung tissue: significantly reduced
  protein expression of CHOP in lung tissue: significantly reduced
